In the supplement of paper PMC4862054:

Assays:
Hs578T [1] = experiment: normalised viability (% of control), CellTiter-Blue; higher = more viable cells (about 100 = DMSO control); settings: 100 nM; incubation time: 72 h
Method: (§1)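 DSRT, CellTiter-Blue viability, 72 h incubation. Signal is normalised to DMSO and benzethonium chloride controls. Value is the normalised response at dose 3.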

DU-4475 [2] = experiment: as above; settings: 10 nM; incubation time: 72 h
Method: as §1

CAL-85-1 [3] = experiment: as above; settings: 10 nM; incubation time: 72 h
Method: as §1

CAL-51 = experiment: as above; settings: 10 nM; incubation time: 72 h
Method: as §1

HDQ-P1 = experiment: as above; settings: 10 nM; incubation time: 72 h
Method: as §1

MFM-223 = experiment: as above; settings: 100 nM; incubation time: 72 h
Method: as §1

MDA-MB-453 = experiment: as above; settings: 10 nM; incubation time: 72 h
Method: as §1

HCC1599 = experiment: as above; settings: 100 nM; incubation time: 72 h
Method: as §1

HCC1143 [4] = experiment: as above; settings: 100 nM; incubation time: 72 h
Method: as §1

BT-474 [5] = experiment: as above; settings: 100 nM; incubation time: 72 h
Method: as §1

BT-549 [6] = experiment: as above; settings: 100 nM; incubation time: 72 h
Method: as §1

SK-BR-3 [7] = experiment: as above; settings: 100 nM; incubation time: 72 h
Method: as §1

CAL-148 [8] = experiment: as above; settings: 10 nM; incubation time: 72 h
Method: as §1

CAL-120 = experiment: as above; settings: 100 nM; incubation time: 72 h
Method: as §1

HCC1937 [9] = experiment: as above; settings: 100 nM; incubation time: 72 h
Method: as §1

MDA-MB-468 = experiment: as above; settings: 100 nM; incubation time: 72 h
Method: as §1

MDA-MB-436 = experiment: as above; settings: 100 nM; incubation time: 72 h
Method: as §1

MDA-MB-231 [10] = experiment: as above; settings: 100 nM; incubation time: 72 h
Method: as §1

Hs578T [11] = experiment: drug sensitivity score (DSS), CellTiter-Glo (DSS (AUC-based score)); higher = stronger drug effect (viability inhibition or cytotoxicity); extreme values may be limits of the assay; settings: incubation time: 72 h
How it was run: (§2)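 For 72 h, breast cancer cell lines seeded at 20 µl suspension per well in 384-well plates were incubated with compound at 5 concentrations in 10-fold steps spanning a 10,000-fold range that differed by compound. The first reading was CellTox Green fluorescence at 485/520 nm, and the second was CellTiter-Glo luminescence after 10 min at room temperature. Both were normalised per plate to 0.1 % DMSO and a positive kill control, and the drug sensitivity score was obtained from the area under the fitted dose-response curve.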

DU-4475 [12] = experiment: as above; settings: incubation time: 72 h
How it was run: as §2

MCF-10A = experiment: as above; settings: incubation time: 72 h
How it was run: as §2

CAL-85-1 [13] = experiment: as above; settings: incubation time: 72 h
How it was run: as §2

HCC1143 [14] = experiment: as above; settings: incubation time: 72 h
How it was run: as §2

BT-474 [15] = experiment: as above; settings: incubation time: 72 h
How it was run: as §2

BT-549 [16] = experiment: as above; settings: incubation time: 72 h
How it was run: as §2

SK-BR-3 [17] = experiment: as above; settings: incubation time: 72 h
How it was run: as §2

CAL-148 [18] = experiment: as above; settings: incubation time: 72 h
How it was run: as §2

HCC1937 [19] = experiment: as above; settings: incubation time: 72 h
How it was run: as §2

MDA-MB-231 [20] = experiment: as above; settings: incubation time: 72 h
How it was run: as §2

| Compound | normalised viability (Hs578T [1]) [%] | normalised viability (DU-4475 [2]) [%] | normalised viability (CAL-85-1 [3]) [%] | normalised viability (CAL-51) [%] | normalised viability (HDQ-P1) [%] | normalised viability (MFM-223) [%] | normalised viability (MDA-MB-453) [%] | normalised viability (HCC1599) [%] | normalised viability (HCC1143 [4]) [%] | normalised viability (BT-474 [5]) [%] | normalised viability (BT-549 [6]) [%] | normalised viability (SK-BR-3 [7]) [%] | normalised viability (CAL-148 [8]) [%] | normalised viability (CAL-120) [%] | normalised viability (HCC1937 [9]) [%] | normalised viability (MDA-MB-468) [%] | normalised viability (MDA-MB-436) [%] | normalised viability (MDA-MB-231 [10]) [%] | drug sensitivity score (Hs578T [11]) | drug sensitivity score (DU-4475 [12]) | drug sensitivity score (MCF-10A) | drug sensitivity score (CAL-85-1 [13]) | drug sensitivity score (HCC1143 [14]) | drug sensitivity score (BT-474 [15]) | drug sensitivity score (BT-549 [16]) | drug sensitivity score (SK-BR-3 [17]) | drug sensitivity score (CAL-148 [18]) | drug sensitivity score (HCC1937 [19]) | drug sensitivity score (MDA-MB-231 [20]) |
| --- | --- | --- | --- | --- | --- | --- | --- | --- | --- | --- | --- | --- | --- | --- | --- | --- | --- | --- | --- | --- | --- | --- | --- | --- | --- | --- | --- | --- | --- |
| Cc1c(C(=O)Nc2ccc(N3C[C@@H](C)O[C@@H](C)C3)nc2)cccc1-c1ccc(OC(F)(F)F)cc1 [NVP-LDE225] | 72.5 | 103 | 102 | 99.7 | 83.5 | 108 | 110 | 102 | 92.5 | 93.3 | 97 | 71.1 | 108 | 99.7 | 97.2 | 113 | 73.2 | 99 |  |  |  |  |  |  |  |  |  |  |  |
| Nc1nc(Cl)nc2c1ncn2[C@@H]1O[C@H](CO)[C@@H](O)[C@@H]1F [Clofarabine] | 84.6 | 105 | 96.8 | 111 | 110 | 89.1 | 103 | 93.7 | 79.7 | 99.2 | 85.6 | 65 | 86.8 | 78.8 | 80 | 91.3 | 77 | 64.2 | 1.74 | 6.22 | 5.94 | 10.6 | 10.8 | 5.27 | 14.3 | 12.7 | 8.43 | 0 | 1.71 |
| COc1cc(Nc2ncc(F)c(Nc3ccc4c(n3)N(COP(=O)(O)O)C(=O)C(C)(C)O4)n2)cc(OC)c1OC [Fostamatinib] |  |  |  |  |  |  |  |  |  |  |  |  |  |  |  |  |  |  | 4.77 | 0 | 7.38 | 2.69 | 1.25 | 4.12 | 4.31 | 1.13 | 0 | 1.88 | 6.92 |
| CC(C)n1nc(-c2ccc3oc(N)nc3c2)c2c(N)ncnc21 [INK128] |  |  |  |  |  |  |  |  |  |  |  |  |  |  |  |  |  |  | 13.8 | 8.44 | 12 | 14.2 | 13 | 11.5 | 15.9 | 20.3 | 14.7 | 8.72 | 11.2 |
